Consider seven compounds from ChEMBL document CHEMBL1201862, “PubChem BioAssay data set” (2004).

Molecules are shown by their SMILES.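 Grown in 96-well plates, cells were treated for 48 hours with each compound at five concentrations. Insufficient inhibition: endpoint recorded as highest concentration tested. Here, GI50 denotes the concentration required for 50% inhibition of growth.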 Calls of active or inactive are those of the source. No stated cut-off is given here; in the data, active = GI50 up to about 1.1 µM and inactive = higher.

Test systems include NCI-H226; SNB-19; OVCAR-4; A498; PC-3; SK-MEL-28; HCT-15; SK-MEL-2; DU-145; A549; NCI/ADR-RES; CAKI-1; MDA-MB-231.
Holding throughout (assay): NCI-60 cell line screen, 48 h

For the compound `O=C(O)C1(Cc2ccc3c(c2)CCC3)Cc2cc3c(cc2C1)CCC3`, the GI50 in the assay on NCI-H226, with SNB-19, in the assay on OVCAR-4, in the assay with A498, with PC-3 and with SK-MEL-28 was > 100 µM (inactive) each time. The GI50 in the assay with HCT-15 is greater than 100 µM; in the assay with SK-MEL-2, > 100 µM (inactive); in the assay with DU-145 it was > 100 µM (inactive); in the assay on A549, > 100 µM (inactive).
Turning to `CC(C)Oc1cccc(N2C(n3ccnc3)=Nc3ccncc3S2(=O)=O)c1`, the GI50 is 21.7 µM (inactive) in the assay on NCI-H226; 20.5 µM (inactive) in the assay on SNB-19; 21 µM (inactive) with NCI/ADR-RES; 14 µM (inactive) in the assay with OVCAR-4; 17.8 µM (inactive) in the assay with A498; 10.8 µM (inactive) in the assay on PC-3. For the same compound, the GI50 in the assay on SK-MEL-28 was 17.9 µM (inactive); with CAKI-1 it was 13.7 µM (inactive); with HCT-15 it was 13.6 µM; in the assay on SK-MEL-2, 13.1 µM (inactive); in the assay with DU-145, 12.2 µM (inactive); in the assay with A549 it was 20.4 µM (inactive).
`N#C/N=[N+](\[O-])c1ccc(C(=O)O)cc1`: the GI50 was 19.2 µM (inactive) with NCI-H226; 16.3 µM (inactive) in the assay on SNB-19; 19.3 µM (inactive) in the assay on NCI/ADR-RES; 21 µM (inactive) in the assay on OVCAR-4; 17.1 µM (inactive) in the assay with PC-3; 18.5 µM (inactive) in the assay with SK-MEL-28. Besides, the GI50 with HCT-15 was 16.2 µM; in the assay with SK-MEL-2 it was 18.7 µM (inactive); in the assay with A549 it was > 100 µM (inactive).
Regarding `COc1cc(C)cc(OC)c1/C=C/C(=O)O`, the GI50 in the assay on NCI-H226, in the assay with SNB-19, in the assay with MDA-MB-231, in the assay with NCI/ADR-RES, with OVCAR-4 and in the assay with A498 was > 100 µM (inactive) throughout. Besides, the GI50 is > 100 µM (inactive) with PC-3; > 100 µM (inactive) in the assay with SK-MEL-28; > 100 µM (inactive) in the assay with CAKI-1; greater than 100 µM with HCT-15; > 100 µM (inactive) in the assay with SK-MEL-2; > 100 µM (inactive) in the assay with A549.
For the compound `O=CNCNCCO`, the GI50 in the assay on NCI-H226, with SNB-19, in the assay with NCI/ADR-RES, in the assay with OVCAR-4, in the assay with A498 and in the assay on SK-MEL-28 was > 100 µM (inactive) in each case. In addition, the GI50 in the assay on CAKI-1 is > 100 µM (inactive); in the assay on HCT-15 it was greater than 100 µM; in the assay with SK-MEL-2 it was > 100 µM (inactive); with DU-145, > 100 µM (inactive); with A549, > 100 µM (inactive).
With `COc1ccc(-c2csc3c2[N+]2(C)C=CC=C2C3N2CCCC2)cc1` (configuration not stated), the GI50 in the assay on NCI-H226 was 2.21 µM (inactive); in the assay with SNB-19, 26.6 µM (inactive); in the assay on MDA-MB-231, 94 µM (inactive); in the assay on NCI/ADR-RES, 17.3 µM (inactive); in the assay on OVCAR-4 it was 46.8 µM (inactive); with A498, 31.1 µM (inactive). Also, the GI50 is 23 µM (inactive) in the assay with PC-3; > 100 µM (inactive) in the assay with CAKI-1; 37.9 µM in the assay on HCT-15; 10.6 µM (inactive) in the assay on SK-MEL-2; 39.9 µM (inactive) in the assay on A549.
In the case of `NC(=O)c1ccccc1NC(=O)C(=O)C(c1cnc2ccc([N+](=O)[O-])cc2n1)[N+](=O)[O-]` (configuration not stated), the GI50 in the assay with NCI-H226 is > 100 µM (inactive); with SNB-19 it was 79.1 µM (inactive); with MDA-MB-231 it was > 100 µM (inactive); in the assay on NCI/ADR-RES, > 100 µM (inactive); in the assay on OVCAR-4, 53.6 µM (inactive); in the assay with A498 it was > 100 µM (inactive). For the same compound, the GI50 in the assay on PC-3 was > 100 µM (inactive); in the assay on SK-MEL-28, > 100 µM (inactive); in the assay with CAKI-1, > 100 µM (inactive); in the assay with HCT-15 it was 54.6 µM; in the assay on SK-MEL-2, > 100 µM (inactive); in the assay with A549, > 100 µM (inactive).
